Measured values taken from patent US10131652B2, “Pyrimidinyloxy benzene derivatives as herbicides” (E. I. DU PONT DE NEMOURS AND COMPANY, priority 2014, dated 2018).
Read-outs that look alike come from different tables or passages of the source.

Legend:
Assay type in all cases: in vivo
[1] = system: Brazilian crabgrass (Digitaria horizontalis); experiment: Test F pre-/postemergence plant response; settings: Digitaria horizontalis, scale 0 to 100, read-out: Plant response rating, Crabgrass, Brazil
In short: (§1)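 Two application timings were run side by side: soil surface treatment of freshly planted seed in silt loam, and foliar treatment of seedlings 2 to 18 cm high. Plants stayed in the greenhouse 14 to 21 days before visual 0–100 injury scoring against controls.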

[2] = system: velvetleaf (Abutilon theophrasti); experiment: Test F pre-/postemergence plant response; settings: Abutilon theophrasti, pre-emergence, scale 0 to 100, read-out: Plant response rating, Velvetleaf
In short: as §1

[3] = system: sandbur (southern sandbur, Cenchrus echinatus); experiment: Test F pre-/postemergence plant response; settings: Cenchrus echinatus, scale 0 to 100, read-out: Plant response rating, Sandbur
In short: as §1

[4] = system: goosegrass (Eleusine indica); experiment: Test F pre-/postemergence plant response; settings: Eleusine indica, pre-emergence, scale 0 to 100, read-out: Plant response rating, Goosegrass
In short: as §1

[5] = system: hairy beggarticks (Bidens pilosa); experiment: Test F pre-/postemergence plant response; settings: Bidens pilosa, scale 0 to 100, read-out: Plant response rating, Beggarticks
In short: as §1

corn (Zea mays) = experiment: Test F pre-/postemergence plant response; settings: Zea mays, scale 0 to 100
In short: as §1

[6] = system: palmer pigweed (Amaranthus palmeri); experiment: Test F pre-/postemergence plant response; settings: Amaranthus palmeri, scale 0 to 100, read-out: Plant response rating, Pigweed, Palmer
In short: as §1

[7] = system: nightshade (eastern black nightshade, Solanum ptycanthum); experiment: Test F pre-/postemergence plant response; settings: Solanum, pre-emergence, scale 0 to 100, read-out: Plant response rating, Nightshade
In short: as §1

[8] = system: arrowleaf sida (Sida rhombifolia); experiment: Test F pre-/postemergence plant response; settings: Sida rhombifolia, scale 0 to 100, read-out: Plant response rating, Arrowleaf Sida
In short: as §1

[9] = system: fall panicum (Panicum dichotomiflorum); experiment: Test F pre-/postemergence plant response; settings: Panicum dichotomiflorum, scale 0 to 100, read-out: Plant response rating, Panicum, Fall
In short: as §1

[10] = system: velvetleaf (Abutilon theophrasti); experiment: Test B pre-/postemergence plant response; settings: Abutilon theophrasti, 240 h, read-out: Plant response rating, Velvetleaf; for pest or weed control at 125 g/ha: 125 g ai/ha; for pest or weed control at 500 g/ha: 500 g ai/ha
In short: (§2)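 Seeds in loam–sand blend given preemergence soil spray; separately, plants at one- to two-leaf stage (2–10 cm) sprayed postemergence, compounds in non-phytotoxic solvent with surfactant. Injury rated visually versus untreated controls after ~10 days in greenhouse, 0 (no effect) to 100 (complete control).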

[11] = system: morningglory (Ipomoea spp.); experiment: Test B pre-/postemergence plant response; settings: Ipomoea, 240 h, read-out: Plant response rating, Morningglory; for pest or weed control at 125 g/ha: 125 g ai/ha; for pest or weed control at 500 g/ha: 500 g ai/ha
In short: as §2

[12] = post-emergence, 8 g ai/ha Postemergence
[13] = post-emergence, 16 g ai/ha Postemergence
[14] = post-emergence, 31 g ai/ha Postemergence
[15] = post-emergence, 62 g ai/ha Postemergence
[16] = post-emergence, 125 g ai/ha Postemergence
[17] = pre-emergence, 8 g ai/ha Preemergence
[18] = pre-emergence, 16 g ai/ha Preemergence
[19] = pre-emergence, 31 g ai/ha Preemergence
[20] = pre-emergence, 62 g ai/ha Preemergence
[21] = pre-emergence, 125 g ai/ha Preemergence
[22] = post-emergence, postemergence, 0 to 100 scale, 0 no effect, 100 complete control
[23] = post-emergence, Postemergence, 0 to 100 scale (0 no effect, 100 complete control)
[24] = pre-emergence, Preemergence, 0 to 100 scale where 0 is no effect and 100 is complete control

FC(F)c1cc(-c2ccccc2Oc2ncc(Br)cn2)no1 [Compound 62, 5-bromo-2-[2-[5-(difluoromethyl)-3-isoxazolyl]phenoxy]pyrimidine]
pest or weed control at 8 g/ha [1, 12]: 0%
pest or weed control at 16 g/ha [1, 13]: 0%
pest or weed control at 31 g/ha [1, 14]: 10%
pest or weed control at 62 g/ha [1, 15]: 15%
pest or weed control at 125 g/ha [1, 16]: 10%
pest or weed control at 8 g/ha [1, 17]: 0%
pest or weed control at 16 g/ha [1, 18]: 0%
pest or weed control at 31 g/ha [1, 19]: 75%
pest or weed control at 62 g/ha [1, 20]: 100%
pest or weed control at 125 g/ha [1, 21]: 100%
pest or weed control at 8 g/ha ([2]; 8 g ai/ha Preemergence): 0%
pest or weed control at 16 g/ha ([2]; 16 g ai/ha Preemergence): 35%
pest or weed control at 31 g/ha ([2]; 31 g ai/ha Preemergence): 75%
pest or weed control at 125 g/ha ([2]; 125 g ai/ha Preemergence): 100%
pest or weed control at 62 g/ha ([2]; Preemergence): 100%
pest or weed control at 8 g/ha [3, 12]: 0%
pest or weed control at 16 g/ha [3, 13]: 0%
pest or weed control at 31 g/ha [3, 14]: 0%
pest or weed control at 62 g/ha [3, 15]: 0%
pest or weed control at 125 g/ha [3, 16]: 0%
pest or weed control at 8 g/ha [3, 17]: 0%
pest or weed control at 16 g/ha [3, 18]: 0%
pest or weed control at 31 g/ha [3, 19]: 0%
pest or weed control at 125 g/ha [3, 21]: 35%
pest or weed control at 62 g/ha ([3]; pre-emergence, Preemergence): 0%
pest or weed control at 8 g/ha ([4]; 8 g ai/ha Preemergence): 0%
pest or weed control at 16 g/ha ([4]; 16 g ai/ha Preemergence): 0%
pest or weed control at 31 g/ha ([4]; 31 g ai/ha Preemergence): 0%
pest or weed control at 125 g/ha ([4]; 125 g ai/ha Preemergence): 75%
pest or weed control at 62 g/ha ([4]; Preemergence): 5%
pest or weed control at 8 g/ha [5, 12]: 5%
pest or weed control at 16 g/ha [5, 13]: 5%
pest or weed control at 31 g/ha [5, 14]: 10%
pest or weed control at 62 g/ha [5, 15]: 50%
pest or weed control at 125 g/ha [5, 16]: 80%
pest or weed control at 8 g/ha [5, 17]: 0%
pest or weed control at 16 g/ha [5, 18]: 0%
pest or weed control at 31 g/ha [5, 19]: 0%
pest or weed control at 62 g/ha [5, 20]: 0%
pest or weed control at 125 g/ha [5, 21]: 0%
Corn plant response rating (crop injury, 0 = no effect, 100 = complete kill) at 8 g/ha (corn (Zea mays); [12]): 0%
Corn plant response rating (crop injury, 0 = no effect, 100 = complete kill) at 16 g/ha (corn (Zea mays); [13]): 0%
Corn plant response rating (crop injury, 0 = no effect, 100 = complete kill) at 31 g/ha (corn (Zea mays); [14]): 0%
Corn plant response rating (crop injury, 0 = no effect, 100 = complete kill) at 62 g/ha (corn (Zea mays); [15]): 5%
Corn plant response rating (crop injury, 0 = no effect, 100 = complete kill) at 125 g/ha (corn (Zea mays); [16]): 10%
Corn plant response rating (crop injury, 0 = no effect, 100 = complete kill) at 8 g/ha (corn (Zea mays); [17]): 0%
Corn plant response rating (crop injury, 0 = no effect, 100 = complete kill) at 16 g/ha (corn (Zea mays); [18]): 0%
Corn plant response rating (crop injury, 0 = no effect, 100 = complete kill) at 31 g/ha (corn (Zea mays); [19]): 0%
Corn plant response rating (crop injury, 0 = no effect, 100 = complete kill) at 62 g/ha (corn (Zea mays); [20]): 0%
Corn plant response rating (crop injury, 0 = no effect, 100 = complete kill) at 125 g/ha (corn (Zea mays); [21]): 0%
pest or weed control at 8 g/ha [6, 12]: 90%
pest or weed control at 16 g/ha [6, 13]: 70%
pest or weed control at 31 g/ha [6, 14]: 95%
pest or weed control at 62 g/ha [6, 15]: 100%
pest or weed control at 125 g/ha [6, 16]: 100%
pest or weed control at 8 g/ha [6, 17]: 10%
pest or weed control at 16 g/ha [6, 18]: 80%
pest or weed control at 31 g/ha [6, 19]: 75%
pest or weed control at 125 g/ha [6, 21]: 100%
pest or weed control at 62 g/ha ([6]; pre-emergence, Preemergence): 100%
pest or weed control at 8 g/ha ([7]; 8 g ai/ha Preemergence): 0%
pest or weed control at 16 g/ha ([7]; 16 g ai/ha Preemergence): 0%
pest or weed control at 31 g/ha ([7]; 31 g ai/ha Preemergence): 70%
pest or weed control at 125 g/ha ([7]; 125 g ai/ha Preemergence): 100%
pest or weed control at 62 g/ha ([7]; Preemergence): 98%
pest or weed control at 8 g/ha [8, 12]: 65%
pest or weed control at 16 g/ha [8, 13]: 80%
pest or weed control at 31 g/ha [8, 14]: 95%
pest or weed control at 62 g/ha [8, 15]: 98%
pest or weed control at 125 g/ha [8, 16]: 98%
pest or weed control at 8 g/ha [8, 17]: 0%
pest or weed control at 16 g/ha [8, 18]: 20%
pest or weed control at 31 g/ha [8, 19]: 70%
pest or weed control at 62 g/ha [8, 20]: 95%
pest or weed control at 125 g/ha [8, 21]: 100%
pest or weed control at 8 g/ha [9, 12]: 0%
pest or weed control at 16 g/ha [9, 13]: 0%
pest or weed control at 31 g/ha [9, 14]: 5%
pest or weed control at 62 g/ha [9, 15]: 10%
pest or weed control at 125 g/ha [9, 16]: 60%
pest or weed control at 8 g/ha [9, 17]: 0%
pest or weed control at 16 g/ha [9, 18]: 0%
pest or weed control at 31 g/ha [9, 19]: 0%
pest or weed control at 125 g/ha [9, 21]: 100%
pest or weed control at 62 g/ha ([9]; pre-emergence, Preemergence): 95%
pest or weed control at 125 g/ha [10, 22]: 100%
pest or weed control at 500 g/ha [10, 23]: 100%
pest or weed control at 125 g/ha [10, 24]: 90%
pest or weed control at 500 g/ha [10, 24]: 100%
pest or weed control at 125 g/ha [11, 22]: 90%
pest or weed control at 500 g/ha [11, 23]: 100%
pest or weed control at 125 g/ha [11, 24]: 60%
pest or weed control at 500 g/ha [11, 24]: 90%
